Measurements as given in US20230111914A1, “SYNTHETIC TRITERPENOIDS WITH NITROGEN-BASED SUBSTITUENTS AT C-17 AND METHODS OF USE THEREOF” (REATA PHARMACEUTICALS, INC., priority 2019, published 2023).
Values joined by “and” are separate entries in the source; they are usually repeats but may differ in a detail not shown here. Equal entries are not always repeated. Where two headings read alike, the source gives them in different places. Marks after values point to notes of the source that are not given here.

Legend:
[1] = system: AREc32 reporter cell line (luciferase reporter under eight copies of the rat GSTA2 ARE sequence); assay: AREc32 luciferase reporter activation; type: cell-based, human; details: for EC (2-fold): Homo sapiens, Arec32, concentration that increases the luminescence signal 2-fold above vehicle, 19 h treatment, read-out: AREc32 EC2X (Mean ± SD)
[2] = system: IFNγ-induced NO production in RAW 264.7 cells; assay: Nitric oxide suppression assay (IFNγ-induced NO production, Griess nitrite readout); type: cell-based, mouse; details: for IC50: 2 h pretreatment, 20 ng/mL interferon gamma 24 h, average of trials per footnote, read-out: NO IC50
[3] = Mus musculus, RAW264.7, RAW 264.7 cells

Row | SMILES | AREc32 EC2X Relative to RTA 402 (Mean ± SD) [1] | EC (2-fold) [1] | NO IC50 Rel. to RTA 402 [2] | IC50 [2, 3] | IC50 ([2]; RAW 264.7 cells) | times more active (NO IC50) than 63170 relative to RTA 402 [2] | times more active (NO IC50) than 63172 relative to RTA 402 [2] | times more active (NO IC50) than 63183 relative to RTA 402 [2]
1 | CC1(C)CC[C@]2(CNC(=O)OC(C)(C)C)CC[C@]3(C)[C@H](C(=O)C=C4[C@@]5(C)C=C(C#N)C(=O)C(C)(C)[C@@H]5CC[C@]43C)[C@@H]2C1 [CC1, reference compound] | 2.1 ± 0.00^a fold | 0.0211 ± 0.00475 µM | 2.06 ± 0.56^e fold | 5.04 ± 2.62 nM | – | – | – | –
2 | CC1(C)CC[C@]2(CN)CC[C@]3(C)[C@H](C(=O)C=C4[C@@]5(C)C=C(C#N)C(=O)C(C)(C)[C@@H]5CC[C@]43C)[C@@H]2C1 [CC2, reference compound] | 1.6 ± 0.17^g fold | 0.0161 ± 0.00081 µM | 1.55 fold and 1.55 ± 0.30^e fold | 3.15 nM | – | – | – | –
3 | CC1(C)CC[C@]2(N)CC[C@]3(C)[C@H](C(=O)C=C4[C@@]5(C)C=C(C#N)C(=O)C(C)(C)[C@@H]5CC[C@]43C)[C@@H]2C1 [CC4, reference compound] | – | – | 2.41 fold and 2.41 ± 0.49^b fold | 3.75 nM | – | – | – | –
4 | CC(=O)N[C@]12CCC(C)(C)C[C@H]1[C@H]1C(=O)C=C3[C@@]4(C)C=C(C#N)C(=O)C(C)(C)[C@@H]4CC[C@@]3(C)[C@]1(C)CC2 [Compound 63170, reference compound] | – | – | 4.95 fold | 8.45 nM | – | – | – | –
5 | CNC(=O)N[C@]12CCC(C)(C)C[C@H]1[C@H]1C(=O)C=C3[C@@]4(C)C=C(C#N)C(=O)C(C)(C)[C@@H]4CC[C@@]3(C)[C@]1(C)CC2 [Compound 63172, reference compound] | – | – | 7.73 fold | 21.6 nM | – | – | – | –
6 | C=CC(=O)N[C@]12CCC(C)(C)C[C@H]1[C@H]1C(=O)C=C3[C@@]4(C)C=C(C#N)C(=O)C(C)(C)[C@@H]4CC[C@@]3(C)[C@]1(C)CC2 [Compound 63183, reference compound] | – | – | 1.35 fold | 4 nM | 2.39 nM | – | – | –
7 | CCC(=O)N[C@]12CCC(C)(C)C[C@H]1[C@H]1C(=O)C=C3[C@@]4(C)C=C(C#N)C(=O)C(C)(C)[C@@H]4CC[C@@]3(C)[C@]1(C)CC2 [Compound 63189, reference compound] | – | – | 4.06 fold | 7.2 nM | – | – | – | –
8 | CC1(C)CC[C@]2(c3nn[nH]n3)CC[C@]3(C)[C@H](C(=O)C=C4[C@@]5(C)C=C(C#N)C(=O)C(C)(C)[C@@H]5CC[C@]43C)[C@@H]2C1 [Compound 63229, reference compound] | – | – | >75.85 fold | > 200 nM | – | – | – | –
9 | CC1(C)CC[C@]2(NC(=O)C3CC3)CC[C@]3(C)[C@H](C(=O)C=C4[C@@]5(C)C=C(C#N)C(=O)C(C)(C)[C@@H]5CC[C@]43C)[C@@H]2C1 [Compound 63236, reference compound] | – | – | 57.25 fold | – | 143 nM | – | – | –
10 | C[C@@H]1C(=O)C(C#N)=C[C@]2(C)C3=CC(=O)[C@@H]4[C@@H]5CC(C)(C)CC[C@]5(NC(=O)C5CC5)CC[C@@]4(C)[C@]3(C)CC[C@@H]12 [Compound 63866, reference compound] | – | – | 1.16 fold | 1.43 nM | – | – | – | –
11 | CC(=O)NC[C@]12CCC(C)(C)C[C@H]1[C@H]1C(=O)C=C3[C@@]4(C)C=C(C#N)C(=O)C(C)(C)[C@@H]4CC[C@@]3(C)[C@]1(C)CC2 [Compound T3] | 0.2 ± 0.08^a fold | 0.0024 ± 0.00044 µM | 0.17 fold and 0.17 ± 0.04^e fold | 0.44 nM | – | more than 29 times | – | –
12 | CN(C[C@]12CCC(C)(C)C[C@H]1[C@H]1C(=O)C=C3[C@@]4(C)C=C(C#N)C(=O)C(C)(C)[C@@H]4CC[C@@]3(C)[C@]1(C)CC2)C(=O)OC(C)(C)C [Compound T5] | 3.9 ± 0.36^a fold | 0.0425 ± 0.00947 µM | 6.04 ± 2.02^d fold | 14.2 ± 6.51 nM | – | – | – | –
13 | CNC[C@]12CCC(C)(C)C[C@H]1[C@H]1C(=O)C=C3[C@@]4(C)C=C(C#N)C(=O)C(C)(C)[C@@H]4CC[C@@]3(C)[C@]1(C)CC2 [Compound T6] | 1.2 ± 0.35^a fold | 0.0169 ± 3e-05 µM | 1.60 ± 0.23^e fold | 3.35 ± 1.62 nM | – | – | – | –
14 | CC(=O)N(C)C[C@]12CCC(C)(C)C[C@H]1[C@H]1C(=O)C=C3[C@@]4(C)C=C(C#N)C(=O)C(C)(C)[C@@H]4CC[C@@]3(C)[C@]1(C)CC2 [Compound T7] | 0.5 ± 0.14^a fold | 0.0068 ± 3e-05 µM | 0.49 ± 0.14^e fold | 0.84 ± 0.37 nM | – | – | – | –
15 | CNC(=O)NC[C@]12CCC(C)(C)C[C@H]1[C@H]1C(=O)C=C3[C@@]4(C)C=C(C#N)C(=O)C(C)(C)[C@@H]4CC[C@@]3(C)[C@]1(C)CC2 [Compound T8] | 0.2 ± 0.06^a fold | 0.0028 ± 4e-05 µM | 0.21 fold and 0.21 ± 0.05^d fold | 0.46 nM | – | – | roughly 37 times | –
16 | CNC(=O)N(C)C[C@]12CCC(C)(C)C[C@H]1[C@H]1C(=O)C=C3[C@@]4(C)C=C(C#N)C(=O)C(C)(C)[C@@H]4CC[C@@]3(C)[C@]1(C)CC2 [Compound T9] | 0.5 ± 0.20^a fold | 0.0072 ± 0.00077 µM | 0.38 ± 0.15^e fold | 0.7 ± 0.18 nM | – | – | – | –

Row | SMILES | AREc32 EC2X Relative to RTA 402 (Mean ± SD) [1] | EC (2-fold) [1] | NO IC50 Rel. to RTA 402 [2] | IC50 [2, 3] | IC50 ([2]; RAW 264.7 cells) | times more active (NO IC50) than 63170 relative to RTA 402 [2] | times more active (NO IC50) than 63172 relative to RTA 402 [2] | times more active (NO IC50) than 63183 relative to RTA 402 [2]
17 | CC1(C)CC[C@]2(CNCCO)CC[C@]3(C)[C@H](C(=O)C=C4[C@@]5(C)C=C(C#N)C(=O)C(C)(C)[C@@H]5CC[C@]43C)[C@@H]2C1 [Compound T12] | 1.7^e fold | 0.0218 µM | 4.07 ± 1.08^e fold | 7.47 ± 0.85 nM | – | – | – | –
18 | CC1(C)CC[C@]2(CN3CCOC3=O)CC[C@]3(C)[C@H](C(=O)C=C4[C@@]5(C)C=C(C#N)C(=O)C(C)(C)[C@@H]5CC[C@]43C)[C@@H]2C1 [Compound T13] | 0.5^e fold | 0.00512 µM | 0.65 ± 0.21^e fold | 1.74 ± 0.55 nM | – | – | – | –
19 | CC1(C)CC[C@]2(CN3CCNC3=O)CC[C@]3(C)[C@H](C(=O)C=C4[C@@]5(C)C=C(C#N)C(=O)C(C)(C)[C@@H]5CC[C@]43C)[C@@H]2C1 [Compound T14] | 0.4^e fold | 0.00437 µM | 0.51 ± 0.09^e fold | 0.89 ± 0.08 nM | – | – | – | –
20 | CN1CCN(C[C@]23CCC(C)(C)C[C@H]2[C@H]2C(=O)C=C4[C@@]5(C)C=C(C#N)C(=O)C(C)(C)[C@@H]5CC[C@@]4(C)[C@]2(C)CC3)C1=O [Compound T15] | 0.5^e fold | 0.00607 µM | 0.64 ± 0.26^d fold | 1.18 ± 0.5 nM | – | – | – | –
21 | C=CC(=O)NC[C@]12CCC(C)(C)C[C@H]1[C@H]1C(=O)C=C3[C@@]4(C)C=C(C#N)C(=O)C(C)(C)[C@@H]4CC[C@@]3(C)[C@]1(C)CC2 [Compound T16] | 0.2 ± 0.05^f fold | 0.002 ± 0.00018 µM | 0.21 fold and 0.21 ± 0.05^d fold | 0.37 nM | – | – | – | more than 6 times
22 | CC1(C)CC[C@]2(N3CCNC3=O)CC[C@]3(C)[C@H](C(=O)C=C4[C@@]5(C)C=C(C#N)C(=O)C(C)(C)[C@@H]5CC[C@]43C)[C@@H]2C1 [Compound T30] | – | – | 3.68 ± 0.33^d fold | 15 ± 2.92 nM | – | – | – | –
23 | CC1(C)CC[C@]2(n3cc[nH]c3=O)CC[C@]3(C)[C@H](C(=O)C=C4[C@@]5(C)C=C(C#N)C(=O)C(C)(C)[C@@H]5CC[C@]43C)[C@@H]2C1 [Compound T45] | – | – | 4.02 ± 0.61^d fold | 16.4 ± 2.94 nM | – | – | – | –
24 | CC1(C)CC[C@]2(CN3C(=O)CCN3C(=O)OC(C)(C)C)CC[C@]3(C)[C@H](C(=O)C=C4[C@@]5(C)C=C(C#N)C(=O)C(C)(C)[C@@H]5CC[C@]43C)[C@@H]2C1 [Compound T50] | – | – | 1.17 ± 0.18^d fold | 4.82 ± 1.3 nM | – | – | – | –
25 | CN1CC(=O)N([C@]23CCC(C)(C)C[C@H]2[C@H]2C(=O)C=C4[C@@]5(C)C=C(C#N)C(=O)C(C)(C)[C@@H]5CC[C@@]4(C)[C@]2(C)CC3)CC1=O [Compound T54] | – | – | 16.18 ± 3.50^e fold | 64.6 ± 19.7 nM | – | – | – | –
26 | CC1(C)CC[C@]2(N(NC(=O)OC(C)(C)C)C(=O)OC(C)(C)C)CC[C@]3(C)[C@H](C(=O)C=C4[C@@]5(C)C=C(C#N)C(=O)C(C)(C)[C@@H]5CC[C@]43C)[C@@H]2C1 [Compound T55] | – | – | 17.42 ± 0.43^e fold | 68.9 ± 10 nM | – | – | – | –
27 | CC1(C)CC[C@]2(n3nccc3C(F)(F)F)CC[C@]3(C)[C@H](C(=O)C=C4[C@@]5(C)C=C(C#N)C(=O)C(C)(C)[C@@H]5CC[C@]43C)[C@@H]2C1 [Compound T59] | – | – | 12.08 ± 2.93^d fold | 49.5 ± 13.8 nM | – | – | – | –
28 | CC1(C)CC[C@]2(n3ccc(C(F)(F)F)n3)CC[C@]3(C)[C@H](C(=O)C=C4[C@@]5(C)C=C(C#N)C(=O)C(C)(C)[C@@H]5CC[C@]43C)[C@@H]2C1 [Compound T60] | – | – | 11.32 ± 1.49^e fold | 45.1 ± 10.6 nM | – | – | – | –
29 | CN1CCN([C@]23CCC(C)(C)C[C@H]2[C@H]2C(=O)C=C4[C@@]5(C)C=C(C#N)C(=O)C(C)(C)[C@@H]5CC[C@@]4(C)[C@]2(C)CC3)CC1=O [Compound T61] | – | – | 3.18 ± 0.67^d fold | 13.2 ± 3.78 nM | – | – | – | –
30 | CC1(C)CC[C@]2(CN3CC(O)C3)CC[C@]3(C)C(O)(C(=O)C=C4[C@@]5(C)C=C(C#N)C(=O)C(C)(C)[C@@H]5CC[C@]43C)[C@@H]2C1 (some centres unmarked) [Compound T64] | – | – | 1.64 ± 0.16^e fold | 3.82 ± 1.76 nM | – | – | – | –
31 | CC1(C)CC[C@]2(NC(=O)C3CC3)CC[C@]3(C)[C@H](C(=O)C=C4[C@@]5(C)C=C(C#N)C(=O)C(C)(C)[C@@H]5CC[C@]43C)[C@@H]2C1 [Compound T68] | – | – | 6.51 ± 1.38^i fold | – | 11.4 ± 5.17 nM | – | – | –
